Data on five compounds can be found in US20020193343A1, “Controlled enzymatic degradation of guar galactomannan solutions using enzymatic inhibition” (priority 2000, published 2002).

Data set [1] concerns Aspergillus niger β-mannanase. The data set is described as follows: Enzyme degradation assay of guar solutions (viscosity reduction, steady shear rheology). The note with it: for inhibition of β-mannanase by TRIS variants (zero shear viscosity): 25 mM. It is filed as biochemical. The procedure:
Enzyme Degradation Assay: Enzyme degradation was conducted with 7 mg/ml purified guar solutions containing 0.2 mg/ml sodium azide and 20 mM of the appropriate buffer. Guar solutions (19 ml) and enzyme stock solution were separately pre-incubated at 25° C. for 15 minutes, followed by the addition of 78.9 μl of enzyme stock solution to 19 ml of guar solution. The final enzyme concentration was 8.3×10^−4 U/ml. The mixture was shaken at an agitation speed of 2 at 25° C. for 1 hour in a New Brunswick gyrotory water bath shaker (Model G76). The enzyme was denatured after 1 hour by placing the enzyme/guar solution in a 90° C. water bath for 10 minutes. Enzyme hydrolysis was conducted at different pH's using various buffers: sodium acetate was used for pH 4 and 5, MES was used for pH 6, sodium phosphate was used for pH 7 and pH 8 and glycine was used for pH 9. If inhibitor, inhibitor variant or NaCl was used, the appropriate amount was added to the guar solution and the pH was readjusted to the appropriate value. […] After incubating each of these solutions at 25° C. for 30 minutes, 78.9 μl of this solution was added to 19 ml of guar solution and the enzymatic degradation of guar was analyzed following known techniques.
Rheology: Steady shear experiments were conducted using a Rheometrics Dynamic Stress Rheometer (DSR II) and a couette fixture with a cup diameter of 31.9 mm, a bob diameter of 29.5 mm and a bob length of 44.25 mm. All experiments were performed at 25° C. and all reported data were reproducible within 10%. Steady shear experiments were performed to determine viscosity, η, as a function of shear rate. […] To analyze a portion of the data, a normalized relative activity was defined using the viscosity data. At a particular pH, the viscosity difference (Δη) between the initial zero shear viscosity and the zero shear viscosity after 1 hour of degradation was used as the reference Δη. […] In summary, [formula]

The conditions of data set [2]: from 25 degrees C. to 60 degrees C. The text has this: The relative amounts of the two forms are dependent on the pH of the solution and can be predicted by the Henderson-Hasselbach equation.

Turning to “Tris(hydroxymethyl)aminomethane [base form of TRIS]”, in data set [1] (base form of TRIS (without any salts)), the “inhibition of β-mannanase, base form compared with hydrochloride form” value is “exactly the same as that of TRIS in its hydrochloride form”.
With `O=C(O)CNC(CO)(CO)CO` [N-tris (hydroxymethyl) methylglycine, reference compound], the “inhibition of β-mannanase by TRIS variants (zero shear viscosity)” value in data set [1] (pH 9, 1 hour) was “no inhibition”.
Turning to `NC(CO)(CO)CO` [TRIS, 2-amino-2-hydroxymethyl-1,3-propanediol], the “pH drop on temperature increase” value in data set [2] is recorded as 0.98. For the same compound, the “inhibition of β-mannanase degradation of guar” value in data set [1] (1 mM TRIS, pH 9, 1 hour) was “only minimal inhibition”; in data set [1] (5 mM TRIS, pH 9, 1 hour), “inhibited the degradation considerably”. Further, the “viscosity reduction of guar by β-mannanase” value in data set [1] (1 mM TRIS, pH 9, 5 hours) is listed as “impeded viscosity reduction considerably”; in data set [1] (10 mM TRIS, pH 9, 5 hours), “minimal viscosity reduction”; in data set [1] (10 mM and higher TRIS, pH 9, 1 hour), “no viscosity reduction”; in data set [1] (25 mM and higher TRIS, pH 9, 5 hours), “no viscosity reduction”. Moreover, in data set [1] (25mM TRIS, pH 9, enzyme 8.3×10^−4 U/ml), the “inhibition of enzyme degradation” value is reported as “inhibits enzyme degradation for an extended period of time”. The “inhibition after mixing TRIS with the enzyme solution before addition to guar” value in data set [1] (TRIS to enzyme molar ratio 1:1 and 5:1, 30 minutes pre-incubation) is “neither of these solutions showed any inhibition”. Also, the type of inhibition result in data set [1] (degradation triggered after 5 hours by pH shift) is “reversible inhibitor”. For the same compound, the “effect on enzymatic hydrolysis by β-mannanase” value in data set [1] (pH 4, 1 hour, 0-25 mM TRIS) is recorded as “did not impede enzymatic hydrolysis”. For the same compound, the “inhibition of β-mannanase at pH 7 compared with pH 9” value in data set [1] (pH 7, low concentrations of TRIS, 1 hour) was “better inhibitor of the enzyme than at pH 9”. Moreover, in data set [1] (pH 8, 1 hour, 7 mg/ml guar, 8.3×10^−4 U/ml enzyme), the “viscosity reduction of guar by β-mannanase with TRIS as buffer” value is listed as “negligible reduction in viscosity”.
Turning to `O=[N+]([O-])C(CO)(CO)CO` [Tris (hydroxymethyl) nitromethane, reference compound], the “inhibition of β-mannanase by TRIS variants (zero shear viscosity)” value in data set [1] (pH 9, 1 hour) was “no inhibition”.
Take `[Cl-].[Na+]` [NaCl]: the “effect of added salt on viscosity reduction by the enzyme” value in data set [1] (pH 4 and pH 9, same quantities as with TRIS hydrochloride) is “did not alter the viscosity reduction”.
